Entries after “also recorded” stand apart in the source; their conditions may differ.
Tests used:
hLAIR-1-CD3ζ chimera = target: T1, hLAIR-1-CD3ζ chimera (Homo sapiens, UniProt Q6GTX8); test: 2B4 NFAT-GFP reporter cell assay, hLAIR-1-CD3ζ chimera; type: cell-based; settings: for most potent hLAIR-1 activators in order of strength: order: III-30, II-56, II-30, III-38, II-42, III-51; for functional triggering of hLAIR-1-CD3ζ (GFP expression, in words): plate-bound ligand
T1 construct: a chimeric protein consisting of the extracellular domain of hLAIR-1 fused to the transmembrane and intracellular domain of CD3ζ; expressed in transfected cells; host or cells: Mouse 2B4 NFAT-GFP reporter T cell hybridoma, pMX puro retroviral vector
T1 sequence (Q6GTX8 22-165 limits assumed): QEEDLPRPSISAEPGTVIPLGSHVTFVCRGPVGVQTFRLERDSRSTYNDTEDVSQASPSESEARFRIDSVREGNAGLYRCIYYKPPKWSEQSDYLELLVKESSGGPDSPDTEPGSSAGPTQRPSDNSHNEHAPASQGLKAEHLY
Procedure: For detection of LAIR-1 ligands: 2B4 T cell hybridoma cells stably transduced with an NFAT-GFP reporter and hLAIR-1-CD3ζ were analyzed as described (11).
2B4 T cell hybridoma cells were stably transduced with an NFAT-GFP reporter construct(40) and hLAIR-1-CD3ζ(15) and analyzed as described(15, 40).

hLAIR-1 [1] = target: T2, hLAIR-1 (Homo sapiens, UniProt Q6GTX8); test: Inhibition of CD3 signaling in hLAIR-1a transfected 2B4 NFAT-GFP reporter cells; type: cell-based; design: expressed in transfected cells; host or cells: Mouse 2B4 NFAT-GFP reporter T cell hybridoma; settings: for inhibition of CD3-induced activation of hLAIR-1 transfected reporter cells (in words): plate-bound peptide 10, 3.3, 1.1, 0.37 μg/ml; for inhibition of CD3-induced activation of hLAIR-1 transfected reporter cells: low peptide concentration 1.1 μg/ml; for inhibitory capacity at low peptide concentration (in words): 1.1 μg/ml
T2 sequence (Q6GTX8 22-287): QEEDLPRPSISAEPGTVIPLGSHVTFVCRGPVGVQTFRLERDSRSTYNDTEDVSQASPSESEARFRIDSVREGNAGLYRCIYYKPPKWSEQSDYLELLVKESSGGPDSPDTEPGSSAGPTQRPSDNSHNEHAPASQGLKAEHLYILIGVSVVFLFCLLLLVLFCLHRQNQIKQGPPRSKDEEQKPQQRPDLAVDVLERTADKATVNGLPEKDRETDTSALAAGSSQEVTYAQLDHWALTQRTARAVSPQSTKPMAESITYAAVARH
Procedure: For detection of inhibition of mouse CD3 signaling: 2B4 T cell hybridoma cells stably transduced with an NFAT-GFP reporter and hLAIR-1a were generated. 1.25 μg/ml anti-mouse CD3 (PharMingen, San Diego, Calif.) was coated overnight at 4° C. in 96-well MAXIsorp flat-bottom plates (Nunc) together with an indicated amount of synthetic trimeric peptides in a total volume of 100 μl/well. The next day, plates were washed and 200 μl of 2.5×10^5 reporter cells/ml in medium were added to each well, and plates were incubated at 37° C. for 22 hrs and then analyzed for GFP expression by flow cytometry on a FACSCalibur (BD Biosciences). Typically, ˜90 percent of the reporters expressed GFP upon CD3 stimulation.

hLAIR-1 [2] = target: T2, hLAIR-1; test: FcεRI-induced degranulation assay, hLAIR-1 transfected RBL-2H3 cells; type: cell-based; design: expressed in transfected cells; settings: plate-bound together with TNP-BSA 0.8 μg/ml
Procedure: 96-well MAXIsorp flat-bottom plates (Nunc) were coated overnight at 4° C. with BSA, or TNP conjugated to BSA (0.8 μg/ml) and indicated amounts of synthetic trimeric peptides (100 μl/well, 2 mM acetic acid in PBS). Meanwhile, untransfected or hLAIR-1a transfected RBL-2H3 (23) cells were sensitized with IgE anti-TNP mAbs at 4° C. for 30 minutes and subsequently washed for three times in medium (AIM-V; Gibco-BRL). After washings of the plates, 5.0×10^5 cells in 70 μl medium were added to each well, and plates were incubated at 37° C. for 1 hour. Subsequently, cultures were transferred to PCR tubes, centrifuged and the supernatants were assayed for β-glucuronidase activity as described (23).

LAIR-2 fusion protein = target: T3, LAIR-2 fusion protein (Homo sapiens, UniProt Q6ISS4); test: BIAcore binding of LAIR-2 fusion protein to immobilized trimeric peptides; settings: 5 μl/min, ~250 RU peptide
T3 construct: chimeric proteins of the extracellular domain of hLAIR-1 or LAIR-2 fused to the Fc region of human IgG1 were prepared; made in house
T3 sequence (Q6ISS4 22-152): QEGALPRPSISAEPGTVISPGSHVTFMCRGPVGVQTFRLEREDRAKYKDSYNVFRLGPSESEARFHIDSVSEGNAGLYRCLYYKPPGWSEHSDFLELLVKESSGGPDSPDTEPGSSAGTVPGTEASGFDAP
Procedure: (§1) Surface plasmon resonance (BIAcore) binding studies were performed using a BIAcore2000 system (BIAcore AB, Uppsala, Sweden). Approximately 2000-3000 response units (RU) of acid-soluble human collagen type I or III (Sigma) were immobilized on a CM5 biosensor chip using the amine coupling kit as instructed by the supplier. Immobilized triple-helical peptides composed of GCO(GPO)10GCOG-NH2 ((GPO)10, also known as collagen-related peptide, CRP^6) and GCP(GPP)10GCPG-NH2 ((GPP)10) were described previously^6. Approximately 250 RU (GPP)10 or (GPO)10 peptide trimers were immobilized using a cysteine coupling kit according manufacturers instructions. Analysis was performed in buffer (125 mM NaCl, 2.5 mM CaCl2, 0.005% (v/v) Tween 20, and 25 mM Hepes, (pH 7.4)) at 25° C. at a flow rate of 20 μl/min for collagen I and III interaction-studies and 5 μl/min for the immobilized peptides. […] Increasing concentrations of hLAIR-1-IgG were injected and allowed to reach an equilibrium plateau for 10 minutes. The delay between injections was 13 min, during which time the biosensor chip was flushed with buffer. In case of peptide-binding studies, biosensor chips were regenerated by injection of 0.1 M H3PO4 (2 min, 5 μl/min).
The surface plasmon resonance binding studies were performed as described before(15). LAIR-2-IgG dimer concentration was calculated based on a theoretical mass of 82.5 kDa.

[3] = tested on: parental 2B4 NFAT-GFP reporter T cell hybridoma cells; test: Inhibition of CD3 signaling in parental (untransfected) 2B4 NFAT-GFP reporter cells; type: cell-based, Mouse; settings: for inhibition of CD3-induced activation of parental reporter cells: high peptide concentrations
hLAIR-1-IgG = target: T4, hLAIR-1-IgG (Homo sapiens, UniProt Q6GTX8); test: BIAcore binding of hLAIR-1-IgG to immobilized triple-helical peptides; settings: hLAIR-1-IgG 780 nM, 5 μl/min, ~250 RU peptide
T4 construct: chimeric proteins of the extracellular domain of hLAIR-1 or LAIR-2 fused to the Fc region of human IgG1 were prepared; made in house
T4 sequence (Q6GTX8 22-165 limits assumed): T1 sequence (Q6GTX8 22-165 limits assumed)
Procedure: as §1

Substance	most potent hLAIR-1 activators in order of strength (hLAIR-1-CD3ζ chimera)	inhibition of CD3-induced activation of hLAIR-1 transfected reporter cells (in words) (hLAIR-1 [1])	inhibition of FcεRI-induced degranulation (β-glucuronidase release) (hLAIR-1 [2])	other results
GPC(GPP)5-GPAGPAGAOGPAGSRGAOGPQGPRGDK-(GPP)5GPC-NH2 [III-51]	most potent hLAIR-1 activators			functional triggering of hLAIR-1-CD3ζ (GFP expression, in words) (hLAIR-1-CD3ζ chimera): potent LAIR-1 binders and activators
GCP(GPP)10GCPG-NH2 [reference compound]		did not inhibit	not	interaction of LAIR-2 with immobilized trimeric peptide (LAIR-2 fusion protein): not; inhibition of CD3-induced activation of parental reporter cells (in words) [3]: did not inhibit; binding of hLAIR-1-IgG to immobilized peptide (hLAIR-1-IgG): did not
GPC(GPP)5-GMOGERGGLGSOGPKGDKGEOGGOGAD-(GPP)5GPC-NH2 [III-32]				functional triggering of hLAIR-1-CD3ζ (GFP expression, in words) (hLAIR-1-CD3ζ chimera): potent LAIR-1 binders and activators
GPC(GPP)5-GTOGTDGPKGASGPAGPOGAQGPOGLQ-(GPP)5GPC-NH2 [II-30]	most potent hLAIR-1 activators	efficiently inhibiting		inhibition of CD3-induced activation of hLAIR-1 transfected reporter cells (hLAIR-1 [1]): ~60%
GPC(GPP)5-GEGGPOGVAGPOGGSGPAGPOGPQGVK-(GPP)5GPC-NH2 [III-38]	most potent hLAIR-1 activators	efficiently inhibiting		inhibition of CD3-induced activation of hLAIR-1 transfected reporter cells (hLAIR-1 [1]): ~60%
GPC(GPP)5-GPRGRSGETGPAGPOGNOGPOGPOGPO-(GPP)5GPC-NH2 [II-56]	most potent hLAIR-1 activators	efficiently inhibiting	potent inhibitors	inhibitory capacity at low peptide concentration (in words) (hLAIR-1 [1]): full inhibitory capacity; also recorded: full inhibitory potential; inhibition of CD3-induced activation of parental reporter cells [3]: ~30%
GPC(GPP)5-GPAGEOGREGSOGADGPOGRDGAAGVK-(GPP)5GPC-NH2 [II-47]		did not induce inhibition		
GPC(GPP)5-GRAGEOGLQGPAGPOGEKGEOGDDGPS-(GPP)5GPC-NH2 [II-42]	most potent hLAIR-1 activators			
GPC(GPP)5-GAOGLRGGAGPOGPEGGKGAAGPOGPO-(GPP)5GPC-NH2 [III-30]	most potent hLAIR-1 activators	efficiently inhibiting	potent inhibitors	inhibitory capacity at low peptide concentration (in words) (hLAIR-1 [1]): full inhibitory capacity; inhibition of CD3-induced activation of parental reporter cells [3]: ~30%
